The source made the active and inactive calls. The rule behind the calls is not given here.
Legend:
Raji = test: Antiproliferative activity against human Raji cells assessed as reduction in cell viability incubated for 24 hrs by CCK-8 assay; format: functional, cell-based
Ramos [1] = test: Antiproliferative activity against human Ramos cells assessed as reduction in cell viability incubated for 24 hrs by CCK-8 assay; format: functional, cell-based
[2] = biological target: T1, Tyrosine-protein kinase BTK (Homo sapiens, UniProt Q06187); conditions: dose 100.0 nM
Description: Inhibition of BTK (unknown origin) at 100 nM by ADP-Glo assay relative to control

[3] = biological target: T1, Tyrosine-protein kinase BTK; test: Inhibition of BTK (unknown origin) by ADP-Glo assay
Ramos [4] = test: Induction of apoptosis in human Ramos cells assessed as viable cells at 5 uM incubated for 24 hrs by annexin V-FITC and PI staining based flow cytometry analysis (reference value: 93.8 %); format: functional
Ramos [5] = test: Induction of apoptosis in human Ramos cells assessed as early apoptotic cells at 5 uM incubated for 24 hrs by annexin V-FITC and PI staining based flow cytometry analysis (reference value: 1.9 %); format: functional
Ramos [6] = test: Induction of apoptosis in human Ramos cells assessed as late apoptotic cells at 5 uM incubated for 24 hrs by annexin V-FITC and PI staining based flow cytometry analysis (reference value: 2.2 %); format: functional
Ramos [7] = test: Induction of apoptosis in human Ramos cells assessed as necrotic cells at 5 uM incubated for 24 hrs by annexin V-FITC and PI staining based flow cytometry analysis (reference value: 2.1 %); format: functional
Ramos [8] = test: Induction of cell cycle arrest in human Ramos cells assessed as G0/G1 phase accumulation at 5 uM incubated for 24 hrs by PI staining based flow cytometry analysis (reference value: 39.13 %); format: functional
Ramos [9] = test: Induction of cell cycle arrest in human Ramos cells assessed as S phase accumulation at 5 uM incubated for 24 hrs by PI staining based flow cytometry analysis (reference value: 37.38 %); format: functional
Ramos [10] = test: Induction of cell cycle arrest in human Ramos cells assessed as G2/M phase accumulation at 5 uM incubated for 24 hrs by PI staining based flow cytometry analysis (reference value: 20.96 %); format: functional
Ramos [11] = test: Induction of cell cycle arrest in human Ramos cells assessed as subG1 phase accumulation at 5 uM incubated for 24 hrs by PI staining based flow cytometry analysis (reference value: 2.53 %); format: functional
[12] = biological target: T1, Tyrosine-protein kinase BTK; test: Inhibition of BTK in human Ramos cells assessed as reduction in BTK phosphorylation at Tyr223 residue at 10 uM incubated for 24 hrs by Western blot analysis; format: cell-based
[13] = biological target: T1, Tyrosine-protein kinase BTK; test: Inhibition of BTK in human Ramos cells assessed as reduction in PLCgamma2 phosphorylation at Tyr557 residue at 3 uM incubated for 24 hrs by Western blot analysis; format: cell-based
[14] = biological target: T1, Tyrosine-protein kinase BTK; test: Inhibition of BTK in human Ramos cells assessed as reduction in BTK phosphorylation at Tyr223 residue at 10 uM incubated for 4 hrs by Western blot analysis relative to control; format: cell-based
[15] = biological target: T1, Tyrosine-protein kinase BTK; test: Inhibition of BTK in human Ramos cells assessed as reduction in BTK phosphorylation at Tyr223 residue at 10 uM incubated for 4 hrs followed by compound wash-out and measured upto 24 hrs by Western blot analysis; format: cell-based
[16] = biological target: Epidermal growth factor receptor (Homo sapiens, UniProt P00533); test: Inhibition of EGFR (unknown origin) by ADP-Glo assay
[17] = biological target: T2, Tyrosine-protein kinase ITK/TSK (Homo sapiens, UniProt Q08881); test: Inhibition of ITK (unknown origin) by ADP-Glo assay
T2 sequence (Q08881 whole entry): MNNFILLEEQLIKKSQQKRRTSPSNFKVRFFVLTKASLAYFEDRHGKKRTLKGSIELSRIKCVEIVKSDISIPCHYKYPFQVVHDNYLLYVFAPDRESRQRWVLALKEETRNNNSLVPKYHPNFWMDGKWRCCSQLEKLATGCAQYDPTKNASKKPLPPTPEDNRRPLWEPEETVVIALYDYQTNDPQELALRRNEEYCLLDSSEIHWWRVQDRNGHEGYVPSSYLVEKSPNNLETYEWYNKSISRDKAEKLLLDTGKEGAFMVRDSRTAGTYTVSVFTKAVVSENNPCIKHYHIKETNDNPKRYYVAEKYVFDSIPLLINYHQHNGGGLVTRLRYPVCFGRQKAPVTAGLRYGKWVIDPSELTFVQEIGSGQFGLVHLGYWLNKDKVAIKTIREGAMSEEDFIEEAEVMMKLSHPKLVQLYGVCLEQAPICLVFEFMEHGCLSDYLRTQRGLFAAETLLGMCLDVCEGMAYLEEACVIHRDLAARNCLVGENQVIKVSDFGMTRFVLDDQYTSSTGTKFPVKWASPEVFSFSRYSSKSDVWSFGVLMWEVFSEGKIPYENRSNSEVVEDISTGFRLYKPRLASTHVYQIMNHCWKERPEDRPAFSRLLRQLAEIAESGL

[18] = biological target: Tyrosine-protein kinase Blk (Homo sapiens, UniProt P51451); test: Inhibition of BLK (unknown origin) by ADP-Glo assay
[19] = biological target: Proto-oncogene tyrosine-protein kinase Src (Homo sapiens, UniProt P12931); test: Inhibition of SRC (unknown origin) by ADP-Glo assay
[20] = biological target: T1, Tyrosine-protein kinase BTK; test: Inhibition of BTK in human TMD8 cells assessed as reduction in cell proliferation incubated for 24 hrs by CCK-8 assay; format: cell-based

T1 sequence (Q06187 whole entry): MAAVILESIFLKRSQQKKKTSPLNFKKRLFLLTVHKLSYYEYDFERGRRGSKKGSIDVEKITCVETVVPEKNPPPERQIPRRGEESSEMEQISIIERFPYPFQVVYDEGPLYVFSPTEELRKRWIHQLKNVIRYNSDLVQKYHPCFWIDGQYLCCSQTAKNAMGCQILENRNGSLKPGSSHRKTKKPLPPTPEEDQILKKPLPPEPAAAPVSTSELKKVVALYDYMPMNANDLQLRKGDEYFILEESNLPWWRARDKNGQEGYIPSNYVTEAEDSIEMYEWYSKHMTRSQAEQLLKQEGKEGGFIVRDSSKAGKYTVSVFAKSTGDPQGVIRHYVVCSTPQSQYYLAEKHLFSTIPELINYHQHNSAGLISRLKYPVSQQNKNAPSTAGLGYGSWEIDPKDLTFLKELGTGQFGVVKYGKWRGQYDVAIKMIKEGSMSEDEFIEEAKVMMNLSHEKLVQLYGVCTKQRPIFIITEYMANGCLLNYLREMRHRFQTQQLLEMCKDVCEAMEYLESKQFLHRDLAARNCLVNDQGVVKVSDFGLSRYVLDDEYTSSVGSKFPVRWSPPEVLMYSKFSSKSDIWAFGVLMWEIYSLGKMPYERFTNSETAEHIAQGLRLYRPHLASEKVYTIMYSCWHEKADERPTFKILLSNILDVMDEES
Epidermal growth factor receptor, sequence (P00533 whole entry): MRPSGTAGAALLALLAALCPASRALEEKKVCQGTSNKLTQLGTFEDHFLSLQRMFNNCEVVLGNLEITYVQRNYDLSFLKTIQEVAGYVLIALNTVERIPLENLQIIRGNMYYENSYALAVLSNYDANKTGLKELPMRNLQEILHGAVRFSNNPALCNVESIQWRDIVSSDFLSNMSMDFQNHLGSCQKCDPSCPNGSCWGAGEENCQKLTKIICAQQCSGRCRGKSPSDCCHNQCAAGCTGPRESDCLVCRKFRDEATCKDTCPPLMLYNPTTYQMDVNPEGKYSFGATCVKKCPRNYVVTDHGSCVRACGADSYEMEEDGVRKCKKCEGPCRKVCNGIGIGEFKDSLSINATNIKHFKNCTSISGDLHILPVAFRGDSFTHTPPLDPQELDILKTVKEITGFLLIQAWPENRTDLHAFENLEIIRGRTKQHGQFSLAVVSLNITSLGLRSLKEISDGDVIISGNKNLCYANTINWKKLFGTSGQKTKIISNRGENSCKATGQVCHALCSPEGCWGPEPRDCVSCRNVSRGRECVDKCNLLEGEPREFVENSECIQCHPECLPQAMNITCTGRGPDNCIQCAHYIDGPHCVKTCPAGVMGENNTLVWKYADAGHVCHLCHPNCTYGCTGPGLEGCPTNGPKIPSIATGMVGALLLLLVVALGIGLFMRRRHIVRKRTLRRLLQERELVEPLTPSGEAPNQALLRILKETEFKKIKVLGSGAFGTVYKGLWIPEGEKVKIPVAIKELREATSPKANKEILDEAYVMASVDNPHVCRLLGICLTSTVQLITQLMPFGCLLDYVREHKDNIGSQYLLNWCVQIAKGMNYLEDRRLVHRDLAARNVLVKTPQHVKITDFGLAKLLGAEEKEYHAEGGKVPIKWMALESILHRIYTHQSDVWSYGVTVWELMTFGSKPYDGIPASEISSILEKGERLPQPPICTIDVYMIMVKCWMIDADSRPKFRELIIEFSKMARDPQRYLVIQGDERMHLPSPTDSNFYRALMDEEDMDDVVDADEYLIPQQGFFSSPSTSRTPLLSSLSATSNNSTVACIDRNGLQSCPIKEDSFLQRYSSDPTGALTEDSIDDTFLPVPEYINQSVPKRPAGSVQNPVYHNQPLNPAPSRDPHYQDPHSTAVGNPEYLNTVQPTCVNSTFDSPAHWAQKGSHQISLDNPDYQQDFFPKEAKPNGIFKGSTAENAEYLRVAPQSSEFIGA
Tyrosine-protein kinase Blk, sequence (P51451 whole entry): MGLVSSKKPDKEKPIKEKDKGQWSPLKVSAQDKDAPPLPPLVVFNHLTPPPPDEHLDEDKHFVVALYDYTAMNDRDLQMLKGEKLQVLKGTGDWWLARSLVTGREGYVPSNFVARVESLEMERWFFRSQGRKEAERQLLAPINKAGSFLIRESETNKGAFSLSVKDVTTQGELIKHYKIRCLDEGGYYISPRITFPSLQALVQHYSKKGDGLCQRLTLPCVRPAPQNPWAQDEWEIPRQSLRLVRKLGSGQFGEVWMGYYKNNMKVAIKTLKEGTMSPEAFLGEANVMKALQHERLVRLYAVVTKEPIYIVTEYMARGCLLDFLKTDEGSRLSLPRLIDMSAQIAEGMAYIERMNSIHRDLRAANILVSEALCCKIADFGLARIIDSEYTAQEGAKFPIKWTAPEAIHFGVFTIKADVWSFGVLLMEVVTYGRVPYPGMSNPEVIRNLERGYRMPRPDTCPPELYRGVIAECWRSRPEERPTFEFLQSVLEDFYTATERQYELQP
Proto-oncogene tyrosine-protein kinase Src, sequence (P12931 2-536 limits assumed): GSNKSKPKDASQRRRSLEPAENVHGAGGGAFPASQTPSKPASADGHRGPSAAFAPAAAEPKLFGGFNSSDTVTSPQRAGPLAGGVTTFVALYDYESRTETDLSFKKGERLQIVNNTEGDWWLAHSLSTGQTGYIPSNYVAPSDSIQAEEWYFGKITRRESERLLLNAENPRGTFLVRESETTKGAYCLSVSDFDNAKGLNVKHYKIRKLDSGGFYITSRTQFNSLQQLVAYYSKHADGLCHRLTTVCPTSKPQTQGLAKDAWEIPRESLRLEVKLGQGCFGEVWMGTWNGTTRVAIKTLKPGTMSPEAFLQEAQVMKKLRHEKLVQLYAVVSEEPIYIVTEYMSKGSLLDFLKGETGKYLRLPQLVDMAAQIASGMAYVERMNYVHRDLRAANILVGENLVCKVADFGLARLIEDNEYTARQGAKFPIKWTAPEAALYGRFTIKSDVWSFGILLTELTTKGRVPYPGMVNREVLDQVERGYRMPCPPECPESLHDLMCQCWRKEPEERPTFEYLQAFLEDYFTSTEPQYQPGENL

IC50 (Raji) [µM]	IC50 (Ramos [1]) [µM]	inhibition [2] [%]	SMILES	also measured
125	> 100	41.6	C=CC(=O)Nc1cccc(Nc2ncnc(Nc3ccc(C(=O)Nc4ccc(C)cn4)cc3)n2)c1	
3.25	59.2	46.8	C=CC(=O)Nc1cccc(Nc2ncnc(Nc3ccc(-c4ccc(F)nc4)cc3)n2)c1	
2.84		75.8	C=CC(=O)N1CCc2ccc(Nc3ncnc(Nc4ccc(C(=O)N5CCCCC5)cc4)n3)cc21	IC50 [3]: 0.0543 µM
15.7	12.3	7.3	C=CC(=O)Nc1cccc(Nc2nc(Cl)nc(Nc3ccc(Oc4ccccc4)cc3)n2)c1	
8.32	20	17.1	C=CC(=O)Nc1cccc(Nc2nc(N)nc(Nc3ccc(Oc4ccccc4)cc3)n2)c1	
	160	36.7	C=CC(=O)Nc1cccc(Nc2ncnc(Nc3ccc(-c4ccc(Cl)nc4)cc3)n2)c1	
18.3	18.9	27.7	C=CC(=O)Nc1cccc(Nc2nc(N)nc(Nc3ccc(OCCOC)cc3)n2)c1	
	> 100	23.4	C=CC(=O)Nc1cccc(Nc2ncnc(Nc3ccc(Oc4ccc(OC)cc4)cc3)n2)c1	
30.6	48.5	39.1	C=CC(=O)Nc1cc(Nc2ncnc(Nc3ccc(C(=O)N4CCCCC4)cc3)n2)ccc1C	IC50 [3]: 0.146 µM
		32.7	C=CC(=O)Nc1cccc(Nc2ncnc(Nc3ccc(-c4ccc(OC)nc4)cc3)n2)c1	
15.6		56.3	C=CC(=O)Nc1cccc(Nc2ncnc(Nc3ccc(C(=O)Nc4ccccn4)cc3)n2)c1	
13.8		55.7	C=CC(=O)Nc1cccc(Nc2ncnc(Nc3ccc(-c4ccc(C)nc4)cc3)n2)c1	
4.62	24.4	8.9	CC#CC(=O)Nc1cccc(Nc2ncnc(Nc3ccc(C(=O)N4CCCCC4)cc3)n2)c1	IC50 [3]: > 1 µM
13.8	13.2	4.8	C/C=C/C(=O)Nc1cccc(Nc2ncnc(Nc3ccc(C(=O)N4CCCCC4)cc3)n2)c1	IC50 [3]: > 1 µM
105	181	57.1	C=CC(=O)Nc1cccc(Nc2ncnc(Nc3ccc(OCCOC)cc3)n2)c1	
12.4	> 100	66.6	C=CC(=O)Nc1cccc(Nc2ncnc(Nc3ccc(-c4cccnc4)cc3)n2)c1	
5.14	6.14	91.1	C=CC(=O)Nc1cccc(Nc2ncnc(Nc3ccc(C(=O)N4CCCCC4)cc3)n2)c1	IC50 [3]: 0.021 µM; viability at 5 µM (Ramos [4]; Homo sapiens, Ramos, read-out: Activity): 84.7%; Activity (Ramos [5]): 2.1%; Activity (Ramos [6]): 10.8%; Activity (Ramos [7]): 2.4%; Activity (Ramos [8]): 29.23%; Activity (Ramos [9]): 35.2%; Activity (Ramos [10]): 25.14%; Activity (Ramos [11]): 10.43%; inhibition [12]: Active; inhibition [13]: Active; inhibition [14]: 100%; inhibition [15]: Active; IC50 [16]: 0.031 µM; IC50 [17]: 2.62 µM; IC50 [18]: 0.594 µM; IC50 [19]: 0.524 µM; inhibition [20]: Dose-dependent effect
		10	C=CC(=O)Nc1cccc(Nc2nc(Cl)nc(Nc3ccc(OCCOC)cc3)n2)c1	
22.2	13.2	77.5	C=CC(=O)Nc1cccc(Nc2ncnc(Nc3ccc(C(=O)N4CCOCC4)cc3)n2)c1	

SMILES	IC50 (Raji) [µM]	IC50 (Ramos [1]) [µM]	inhibition [2] [%]	also measured
C=CC(=O)N1CCC[C@@H](n2nc(-c3ccc(Oc4ccccc4)cc3)c3c(N)ncnc32)C1 [IBRUTINIB]	12.6	1.35		Activity (Ramos [4]): 82.1%; Activity (Ramos [5]): 1.9%; Activity (Ramos [6]): 12.5%; Activity (Ramos [7]): 3.5%; Activity (Ramos [8]): 28.72%; Activity (Ramos [9]): 29.22%; Activity (Ramos [10]): 26.95%; Activity (Ramos [11]): 15.11%
